From ChEMBL document CHEMBL2074546, “Inhibition of P-glycoprotein by flavonoid derivatives in adriamycin-resistant human myelogenous leukemia (K562/ADM) cells” (Cancer Lett, 2002) come the findings set out here.

Sequence of ATP-dependent translocase ABCB1 (P08183 whole entry): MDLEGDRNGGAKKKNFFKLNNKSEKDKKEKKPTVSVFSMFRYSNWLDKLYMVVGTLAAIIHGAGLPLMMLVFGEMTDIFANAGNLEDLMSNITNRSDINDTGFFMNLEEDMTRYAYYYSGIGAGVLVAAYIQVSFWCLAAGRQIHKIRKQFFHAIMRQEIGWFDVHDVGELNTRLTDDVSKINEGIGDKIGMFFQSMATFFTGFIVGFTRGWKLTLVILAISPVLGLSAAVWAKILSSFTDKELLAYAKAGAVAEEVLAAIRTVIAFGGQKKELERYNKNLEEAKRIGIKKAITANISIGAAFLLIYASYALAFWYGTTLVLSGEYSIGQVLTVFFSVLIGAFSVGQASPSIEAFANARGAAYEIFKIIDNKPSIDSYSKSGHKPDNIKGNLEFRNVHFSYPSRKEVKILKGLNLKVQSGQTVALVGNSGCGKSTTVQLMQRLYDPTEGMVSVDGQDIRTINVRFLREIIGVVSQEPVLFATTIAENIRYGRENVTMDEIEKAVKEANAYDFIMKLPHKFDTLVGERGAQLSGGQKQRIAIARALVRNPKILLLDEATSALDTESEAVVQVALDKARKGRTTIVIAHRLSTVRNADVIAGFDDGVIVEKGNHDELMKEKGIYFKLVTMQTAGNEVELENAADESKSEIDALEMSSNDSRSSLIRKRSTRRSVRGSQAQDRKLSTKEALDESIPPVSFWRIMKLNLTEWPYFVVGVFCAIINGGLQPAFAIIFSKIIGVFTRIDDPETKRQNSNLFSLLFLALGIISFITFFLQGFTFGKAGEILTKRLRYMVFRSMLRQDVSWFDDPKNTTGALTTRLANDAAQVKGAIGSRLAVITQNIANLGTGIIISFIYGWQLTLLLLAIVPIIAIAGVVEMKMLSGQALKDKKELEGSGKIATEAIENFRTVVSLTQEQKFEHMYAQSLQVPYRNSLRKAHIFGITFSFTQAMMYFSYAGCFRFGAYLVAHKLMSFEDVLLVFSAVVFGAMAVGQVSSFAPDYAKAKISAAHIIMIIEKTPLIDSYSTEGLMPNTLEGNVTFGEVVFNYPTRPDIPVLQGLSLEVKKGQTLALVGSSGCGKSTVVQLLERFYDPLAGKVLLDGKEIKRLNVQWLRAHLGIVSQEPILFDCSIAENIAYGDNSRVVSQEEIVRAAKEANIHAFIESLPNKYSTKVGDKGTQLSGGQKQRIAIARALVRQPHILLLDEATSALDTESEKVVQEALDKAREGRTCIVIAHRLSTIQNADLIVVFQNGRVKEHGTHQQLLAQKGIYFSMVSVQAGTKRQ

This data set concerns the target ATP-dependent translocase ABCB1 (Homo sapiens, UniProt P08183). Kind of data set: TP_TRANSPORTER: increase in Vincristine intracellular accumulation (0.025 uM) in K562/ADM cells. The format is functional, cell-based. The note with it: k562/adr.
Turning to `C=CCOc1ccc(-c2oc3cc(OCC=C)cc(O)c3c(=O)c2OCC=C)c(OCC=C)c1` [MORIN PENTAALLYL ETHER], the Activity result is “inhibitor [(at a rough estimate) 500 % of control]”.
In the case of `CCOc1ccc(-c2oc3cc(OCC)cc(O)c3c(=O)c2OCC)c(OCC)c1` [MORIN PENTAETHYL ETHER], the Activity result was “inhibitor [(at a rough estimate) 1430 % of control]”.
Then `COc1ccc(-c2oc3cc(OC)cc(O)c3c(=O)c2OC)c(OC)c1` [MORIN PENTAMETHYL ETHER], with “inhibitor [(at a rough estimate) 470 % of control]”; and `CCCOc1ccc(-c2oc3cc(OCCC)cc(O)c3c(=O)c2OCCC)c(OCCC)c1` [MORIN PENTAPROPYL ETHER], with “inhibitor [(at a rough estimate) 390 % of control]”.
